Data from US12415939B2, “Nano-adhesive and surface primer compound and use thereof” (The Regents of the University of California, priority 2015, dated 2025).

Experiments:
Assay type in all cases: physicochemical
[1] = AFM force between Z-Cat-Ben SAM on silica and a silica bead; details: SAM on silica from 5 mM
Source text: The pristine self-assemble of the Z-Cat-Ben molecules on silica surface exposed the aromatic residues to the air-water interface resulting in a low interfacial energy between a silica bead and the SAM surface as measured with the AFM technique (Wad˜0.07 mJ/m^2, see FIG. 47). This is unlike the strong adhesion of SAMs exposing catechol residues to the air water interface that bind to silica surface through hydrogen bonding interactions (Wad˜7.7 mJ/m^2).

[2] = QCM-D adsorption of zwitterionic molecules; details: silica
Source text: Quartz Crystal Microbalance (QCM): Adsorption of the molecules on different surfaces such as silica, SiO2, (FIGS. 7A-7E) and titania, TiO2, (FIGS. 8A-8E) was also explored by the quartz crystal microbalance (QCM) and confocal fluorescence microscopy after rhodamine staining (FIG. 27A-27B). Quartz crystal microbalance with dissipation (QCM-D): A “static cell” (often called “Open Model”) QCM-D (Q-Sense, Biolin Scientific) was employed to qualitatively show the adsorption of the zwitterionic molecules onto mineral and metal oxide surfaces. 50 μl of 5 mM zwitterionic solution was deposited onto TiO2 and SiO2 surface, respectively, in DI H2O (100 μl) using a static cell via two-step adsorption. […] However, a quantitative discussion regarding the adsorbed mass (frequency shift) and the viscoelastic properties (dissipation) of the adsorbed “soft” layers is challenging because the mass of the zwitterionic molecules cannot be separated from the mass of adsorbed water. […]
Quartz crystal microbalance with dissipation (QCM-D) is an extension to the QCM technique developed by Q-Sense® and can be used to determine the rigidity/softness and the viscoelastic properties of the adsorbed material. The QCM quartz crystal was coated with different rigid materials (e.g., metals, polymers, dielectrics) and the adsorption kinetics can be monitored on these materials in liquid environment. […]

[3] = AFM adhesion force runs with silica probe on Z-Cat-C10 coated copper plate; details: CuO2/Cu(OH)2 and SiO2 surfaces
Protocol: AFM force runs were measured with and without Z-Cat-C10 on silicon wafer and copper plate, respectively, vs. silicon dioxide probe. Underwater force run was conducted for the surface prepared subsequently after spreading the 5 mM Z-Cat-C10, waiting for 2 min, rinsing thoroughly with degassed DI water thoroughly for 3 times. Dry force run was performed after ˜5 min dry of the surface prepared as for the underwater force run. […] Cantilever spring constant (K) for #=10 μm silica tip on silicon wafer and copper plate with Z-Cat-C10, was 0.1 N m^−1.
The measured adhesion, Fa, force (minimum of the potential well of the F vs. D curves obtained from AFM measurements) is related to the adhesion energy per unit area by Wa=Fa/2πR for rigid surfaces with weak adhesive interactions, and by Wa=Fa/1.5πR (used in this study) for soft deformable surfaces with strong adhesion or cohesion. […]
The adhesion/cohesion energy of the synthetic zwitterionic molecules was investigated in SFA (SurForce LLC, Santa Barbara, CA). […] The adhesion forces between Z-Cat-C10 molecules on various surfaces, e.g., silica and copper, were also measured by AFM (MFP-3D, Asylum research, Goleta, CA) in DI water and ambient conditions, respectively, at room temperature. […] Cantilever spring constants were measured for each force run. […]

SMILES | interfacial energy Wad between silica bead and SAM [1] | adsorbed mass ([2]; 5 mM, zero applied pressure) | adsorbed layer thickness ([2]; Voigt model) | adhesion Wad after air-drying ([3]; air-dried ~5 min) | wet work of adhesion Wad ([3]; underwater)
C[N+](C)(CCCc1ccccc1)CCOP(=O)([O-])OCCCc1ccc(O)c(O)c1 [Z-Cat-Ben] | ~0.07 mJ/m^2 | 85 ng/cm^2 | 1 nm |  | 
CN(C)CCOP(=O)(O)OCCCc1ccc(O)c(O)c1 [Z-Cat-C10] |  |  |  | ~4 mJ m^−2 | ~0.1 mJ m^−2
